pEC50, pIC50: −log10 of the molar value.
Tests used:
[1] = tested on: TGF-b induced Endothelin-1 production; assay: ET-1 assay: inhibitory effect on TGF-b induced endothelin-1 production; format: cell-based; settings: Homo sapiens, Fibroblast; fibroblasts, stimulant (TGFb, serum, LPA etc), ET-1 in media by ELISA, 4-parameter fit
Summary of the method: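 Fibroblasts (primary human lung/dermal, HFL-1, 3T3) serum-starved 0-48 h, preincubated ~30 min with compound, then stimulated (TGFb, serum or LPA) for 16-48 h. Secreted ET-1 measured by ELISA; EC50 from 4-parameter logistic fit, with CC50 from ATPlite in the same wells.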

[2] = tested on: Fibroblasts (primary human lung and dermal, HFL-1, 3T3 etc); assay: Cell proliferation assay (BrdU incorporation); format: cell-based; settings: HFL1, stimulant (LPA, TGFb, serum etc), 50% inhibition of the increase of BrdU incorporation
Experimental: Assay of Inhibitory Effect on Cell Proliferation (BrdU Incorporation)
Fibroblasts (primary human lung and dermal, HFL-1, 3T3 etc) were plated on a 96-well plate and serum starved for 24-48 hours. The media were then exchanged for media containing stimulants (LPA, TGFb, serum etc) and cultured further for 16-24 hours before BrdU addition. After culturing for another 8 hours, cells were washed with PBS and the amount of BrdU incorporated into the cells was assayed by absorbance at 450 nm using the Cell proliferation ELISA system (RPN250, Amersham LIFE SCIENCE). The difference between the amount of BrdU incorporated in the stimulant-added well and the amount of BrdU incorporated in the well containing no stimulant represented the amount of BrdU incorporation accelerated by stimulant. The increase of BrdU incorporation without the addition of test compounds was set as 100% and the concentration of compound with 50% inhibition in the increase of BrdU incorporation (IC50 value) was determined. The test compounds were added 0-30 min before stimulant addition.
Compounds of some embodiments were prepared according to synthetic methods described herein and assay data obtained for IC50 for BrdU inhibition. The assay data obtained is presented in Table 3, in which A=less than 50 μM, B=greater than or equal to 50 μM and less than or equal to 200 μM; and C=greater than 200 μM.

Structure (SMILES)	pEC50 [1]	pIC50 [2]
CCn1nnc2c(=O)n(-c3ccc(OC(F)(F)F)cc3)cc(-c3cnn(C)c3)c21 [Compound 624]	> 4.30	> 4.30
Cn1cc(-c2cn(-c3ccc(OC(F)(F)F)cc3)c(=O)c3nccnc23)cn1 [Compound 47]	> 4.30	> 4.30
Cn1cc(-c2cn(-c3ccc(OC(F)(F)F)cc3)c(=O)c3ncn(C)c23)cn1 [Compound 59]	> 4.30	> 4.30
O=c1c2nccnc2ccn1-c1ccc(OC(F)(F)F)cc1 [Compound 575]	> 4.30	> 4.30
Cc1cc(=O)n(-c2ccc(OC(F)(F)F)cc2)cc1-c1ccc2c(c1)N(C)C(=O)CO2 [Compound 210]	> 4.30	< 3.70
Cc1cc(=O)n(-c2ccc(OC(F)(F)F)cc2)cc1-c1ccc(Cl)c(F)c1 [Compound 198]	3.70 to 4.30	> 4.30
CCOc1ccc(-n2cc(-c3cn[nH]c3)c3nccnc3c2=O)c(C)c1 [Compound 574]	> 4.30	> 4.30
Cn1ccc2c(-c3cn[nH]c3)cn(-c3ccc(C#N)cc3)c(=O)c21 [Compound 600]	> 4.30	< 3.70
Cn1cnc2c(-c3ccc(F)cc3)cn(-c3ccc(OC(F)(F)F)cc3)c(=O)c21 [Compound 58]	> 4.30	> 4.30
CCOc1ccc(-n2cc(-c3ccnnc3)c3nn(CC)nc3c2=O)c(C)c1 [Compound 685]	> 4.30	> 4.30
Cc1ccc(=S)n(-c2ccc(OC(F)(F)F)cc2)c1 [Compound 333]	3.70 to 4.30	< 3.70
Cc1cc(=O)n(-c2cccc3c2OCO3)cc1-c1ccc(F)cc1 [Compound 184]	3.70 to 4.30	> 4.30
Cc1cc(=O)n(-c2ccc(OC(F)(F)F)cc2)cc1-c1ccc2c(c1)OCO2 [Compound 202]	3.70 to 4.30	> 4.30
O=c1c2nccnc2c(-c2ccc(F)cc2)cn1-c1ccc(OC(F)(F)F)cc1 [Compound 46]	> 4.30	> 4.30
Cc1cc(=O)n(-c2ccc(OC(F)(F)F)cc2)cc1-c1cn(C)nc1C(F)(F)F [Compound 238]	3.70 to 4.30	> 4.30
O=c1ccc(-c2cn[nH]c2)cn1-c1ccc(OC(F)(F)F)cc1 [Compound 374]	> 4.30	3.70 to 4.30
Cc1nc2c(=O)n(-c3ccc(OC(F)(F)F)cc3)cc(-c3cnn(C)c3)c2o1 [Compound 569]	> 4.30	> 4.30
CCn1nc2c(-c3cnn(C)c3)cn(-c3ccc(OC(F)(F)F)cc3)c(=O)c2n1 [Compound 619]	> 4.30	> 4.30
Cn1cc(-c2cn(-c3ccc(OC(F)(F)F)cc3)c(=O)cc2Oc2ccccc2)cn1 [Compound 153]	> 4.30	> 4.30
O=c1c2[nH]ncc2c(-c2ccc(F)cc2)cn1-c1ccc(OC(F)(F)F)cc1 [Compound 689]	> 4.30	> 4.30
Cc1cc(=O)n(-c2ccc(OC(F)(F)F)cc2)cc1-c1c(C)nn(C)c1C [Compound 237]	3.70 to 4.30	> 4.30

Structure (SMILES)	pEC50 [1]	pIC50 [2]
Cn1cc(-c2cn(-c3ccc(OC(F)(F)F)cc3)c(=O)c3c2OCC(=O)N3Cc2ccccc2)cn1 [Compound 50]	< 3.70	> 4.30
Cc1cc(=O)n(-c2cccc(C(N)=O)c2)cc1-c1ccc(F)cc1 [Compound 189]	< 3.70	< 3.70
O=c1cc(O)c(-c2ccc(F)cc2)cn1-c1ccc(OC(F)(F)F)cc1 [Compound 86]	3.70 to 4.30	> 4.30
Cn1cc(-c2cn(-c3ccc(OC(F)(F)F)cc3)c(=O)cc2NCc2ccccc2)cn1 [Compound 123]	> 4.30	> 4.30
Cn1cc(-c2cn(-c3ccc(OC(F)(F)F)cc3)c(=O)cc2NCc2cncnc2)cn1 [Compound 531]	> 4.30	> 4.30
Cn1cc(-c2cn(-c3ccc(OC(F)(F)F)cc3)c(=O)c3c2ncn3C)cn1 [Compound 665]	> 4.30	3.70 to 4.30
CC(=O)c1ccc(=O)n(-c2ccc(F)cc2)c1 [Compound 13]	< 3.70	< 3.70
CCOc1ccc(-n2cc(-c3cn[nH]c3)c3cc[nH]c3c2=O)c(C)c1 [Compound 607]	> 4.30	> 4.30
Cc1cc(=O)n(-c2ccc(Cl)cc2)cc1-c1cn[nH]c1 [Compound 431]	< 3.70	3.70 to 4.30
Cn1cc(-c2cn(-c3ccc(OC(F)(F)F)cc3)c(=O)c3[nH]ccc23)cn1 [Compound 603]	> 4.30	> 4.30
Cc1cc(=O)n(-c2ccc(OC(F)(F)F)cc2)cc1-c1ccc2c(c1)OCC(=O)N2 [Compound 424]	3.70 to 4.30	> 4.30
Cc1cc(=O)n(-c2ccc(OC(F)(F)F)cc2)cc1-c1ccc2nccn2c1 [Compound 252]	3.70 to 4.30	3.70 to 4.30
O=c1c2nccnc2c(-c2cn[nH]c2)cn1-c1ccc(OC(F)(F)F)cc1 [Compound 400]	> 4.30	> 4.30
O=c1ccc2c(n1-c1ccc(OC(F)(F)F)cc1)CCC2 [Compound 28]	3.70 to 4.30	3.70 to 4.30
Cc1n[nH]c(C)c1-c1ccc(=O)n(-c2ccc(OC(F)(F)F)cc2)c1 [Compound 383]	3.70 to 4.30	3.70 to 4.30
O=c1cc(Cl)c(-c2ccc(F)cc2)cn1-c1ccc(OC(F)(F)F)cc1 [Compound 87]	> 4.30	> 4.30
Cn1cc(-c2cn(-c3ccc(OC(F)(F)F)cc3)c(=O)cc2NCc2ccc(F)cc2F)cn1 [Compound 404]	> 4.30	> 4.30
O=c1c2[nH]ccc2c(-c2cn[nH]c2)cn1-c1ccc(OC(F)(F)F)cc1 [Compound 604]	> 4.30	> 4.30
Cc1cc(=O)n(-c2ccc(OC(F)(F)F)cc2)cc1-c1cccc2ncsc12 [Compound 263]	> 4.30	> 4.30
Cc1cc(=O)n(-c2ccc(OC(F)(F)F)cc2)cc1-c1ccc2ocnc2c1 [Compound 254]	> 4.30	> 4.30
Cn1cc(-c2cn(-c3ccc(OC(F)(F)F)cc3)c(=O)cc2NCc2ccc(F)cc2)cn1 [Compound 407]	> 4.30	> 4.30

Structure (SMILES)	pEC50 [1]	pIC50 [2]
O=c1c2[nH]ccc2c(-c2ccc(F)cc2)cn1-c1ccc(OC(F)(F)F)cc1 [Compound 591]	> 4.30	< 3.70
Cc1cc(=O)n(-c2ccc(OC(F)(F)F)cc2)cc1-c1ccc2c(c1)OCC(=O)N2C [Compound 425]	> 4.30	> 4.30
CS(=O)(=O)n1cc(-c2ccc(=O)n(-c3ccccc3)c2)cn1 [Compound 71]	< 3.70	< 3.70
CCn1ccc2c(=O)n(-c3ccc(OC(F)(F)F)cc3)cc(-c3ccc(F)cc3)c21 [Compound 626]	> 4.30	> 4.30
Cn1cc(-c2cn(-c3ccc(OC(F)(F)F)cc3)c(=O)cc2C#N)cn1 [Compound 402]	> 4.30	< 3.70
Cc1cc(=O)n(-c2ccc(OC(F)(F)F)cc2)cc1-c1cccc2c1OC(C)(C)O2 [Compound 207]	3.70 to 4.30	> 4.30
Cn1cc(-c2cn(-c3ccccc3)c(=O)c3c2CCCC3)cn1 [Compound 31]	> 4.30	3.70 to 4.30
Cn1cc(-c2cn(-c3ccc(OC(F)(F)F)cc3)c(=O)cc2Oc2cccc(Cl)c2)cn1 [Compound 413]	> 4.30	> 4.30
Cc1cc(=O)n(-c2ccc(OC(F)(F)F)cc2)cc1-c1ccnnc1 [Compound 243]	3.70 to 4.30	< 3.70
COCCn1ccc2c(-c3cnn(C)c3)cn(-c3ccc(OC(F)(F)F)cc3)c(=O)c21 [Compound 651]	> 4.30	> 4.30
O=C1COc2c(-c3ccc(F)cc3)cn(-c3ccc(OC(F)(F)F)cc3)c(=O)c2N1Cc1ccccc1 [Compound 51]	< 3.70	< 3.70
Cc1cc(=O)n(-c2ccc(OC(F)(F)F)cc2)cc1-c1ccc2c(c1)NC(=O)CO2 [Compound 209]	> 4.30	> 4.30
CCOc1ccc(-n2cc(Br)c3nccnc3c2=O)c(C)c1 [Compound 61]	> 4.30	> 4.30
CCn1ccc2ccn(-c3ccc(OC(F)(F)F)cc3)c(=O)c21 [Compound 610]	> 4.30	> 4.30
Cn1cc(-c2cn(-c3ccc(OC(F)(F)F)cc3)c(=O)cc2NCc2c(F)cccc2F)cn1 [Compound 133]	3.70 to 4.30	3.70 to 4.30
CCn1ccc2c(-c3cnn(CCO)c3)cn(-c3ccc(OC(F)(F)F)cc3)c(=O)c21 [Compound 615]	> 4.30	> 4.30
Cn1cc(-c2cn(-c3ccc(OC(F)(F)F)cc3)c(=O)cc2Oc2ccc(F)cc2)cn1 [Compound 410]	> 4.30	> 4.30
CCn1ccc2c(-c3ccc(F)cc3)c[nH]c(=O)c21 [Compound 595]	> 4.30	3.70 to 4.30
O=c1ccc(-c2ccccc2)cn1-c1cncnc1 [Compound 300]	< 3.70	< 3.70

From US10233195B2, “Anti-fibrotic pyridinones” (InterMune, Inc., priority 2014, dated 2019)
